Measured values from patent US9393447B2, “Liquid non-ionic salt-free skin and hair treatment composition that contains Lauroyl N-Methyl Glucamide” (Formula XO, Inc., priority 2013, dated 2016).

Legend:
[1] = Temperature at which LMG solutions solidify (gel) on cooling; type: physicochemical
Procedure: The pH was then adjusted to 4-5 with HC1. Separate solutions were also prepared with increasing final concentrations of decyl glucoside: 0.0, 0.5, 1.0, 2.0, 3.0, 4.0, 5.0, 6.0. The compositions were brought into clear, colorless single phase solutions by heating to 60° C. The solutions were then cooled in a refrigerated chamber and the temperature at which gelling occurred was noted. As the concentration of decyl glucoside increased the temperature at which the LMG solution gelled decreased, forming a non-gelling glass at decyl glucoside concentrations of 5% and above. Thus the addition of decyl glucoside at concentrations of 5% or greater to a solution of 10% LMG and 10% glycerol prevents stable gel formation, even at temperatures as low as −20° C.
Composition A was prepared as described in the above table.
At room temperature the solution was viscous in consistency. The solution solidified at 15° C. […] Such phase transitions in a commercial product are unacceptable.

For `CCCCCCCCCCCC(=O)N(C)CC(O)C(O)C(O)C(O)CO` (stereo not drawn) [LMG, Lauroyl N-Methyl Glucamide], the “Physical state of solution” value ([1]; 0.2 wt % solution of LMG in water, 4° C.) was “loose jelly-like solution”, the “Temperature at which hard gels form” value ([1]; LMG 5-15 wt % in water) was “about 35 °C” and the melting point was ~ 60 °C.
